Experimental data from ChEMBL document CHEMBL1134985, “Design and synthesis of 6-substituted amino-4-oxa-1-azabicyclo[3,2,0]heptan-7-one derivatives as cysteine proteases inhibitors” (Bioorg Med Chem Lett, 2002).

Legend:
Cathepsin B = Cathepsin B (Homo sapiens, UniProt P07858); assay: In vitro Inhibitory activity against Cathepsin B cysteine protease by using Cbz-Phe-Arg-AMC
Cathepsin S = Cathepsin S (Homo sapiens, UniProt P25774); assay: In vitro Inhibitory activity against Cathepsin S cysteine protease by using Cbz-Val-Val-Arg-AMC
Sequence of Cathepsin S (P25774 whole entry): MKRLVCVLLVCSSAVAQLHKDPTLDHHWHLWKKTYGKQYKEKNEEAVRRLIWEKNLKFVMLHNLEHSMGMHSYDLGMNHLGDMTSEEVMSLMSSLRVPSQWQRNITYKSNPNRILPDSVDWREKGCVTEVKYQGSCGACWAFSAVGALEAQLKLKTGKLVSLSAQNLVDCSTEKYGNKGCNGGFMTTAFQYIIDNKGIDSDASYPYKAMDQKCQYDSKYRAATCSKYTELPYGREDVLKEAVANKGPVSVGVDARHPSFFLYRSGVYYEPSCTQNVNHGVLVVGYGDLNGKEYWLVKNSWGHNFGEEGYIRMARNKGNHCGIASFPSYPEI

Procathepsin L = molecular target: T1, Procathepsin L (Rattus norvegicus, UniProt P07154); assay: In vitro Inhibitory activity against Cathepsin L cysteine protease by using Cbz-Phe-Arg-AMC
T1 sequence (P07154 whole entry): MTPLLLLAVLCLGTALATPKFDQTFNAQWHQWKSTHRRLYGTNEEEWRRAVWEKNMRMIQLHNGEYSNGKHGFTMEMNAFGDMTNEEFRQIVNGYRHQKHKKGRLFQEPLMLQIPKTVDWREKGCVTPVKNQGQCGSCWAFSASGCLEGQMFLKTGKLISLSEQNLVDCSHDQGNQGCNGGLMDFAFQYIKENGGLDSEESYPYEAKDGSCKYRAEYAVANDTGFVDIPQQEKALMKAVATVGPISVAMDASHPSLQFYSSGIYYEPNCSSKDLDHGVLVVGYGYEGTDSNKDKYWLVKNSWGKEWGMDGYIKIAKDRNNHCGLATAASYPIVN

Cathepsin K = molecular target: T2, Cathepsin K (Homo sapiens, UniProt P43235); assay: In vitro Inhibitory activity against Cathepsin K cysteine protease by using Cbz-Phe-Arg-AMC
T2 sequence (P43235 whole entry): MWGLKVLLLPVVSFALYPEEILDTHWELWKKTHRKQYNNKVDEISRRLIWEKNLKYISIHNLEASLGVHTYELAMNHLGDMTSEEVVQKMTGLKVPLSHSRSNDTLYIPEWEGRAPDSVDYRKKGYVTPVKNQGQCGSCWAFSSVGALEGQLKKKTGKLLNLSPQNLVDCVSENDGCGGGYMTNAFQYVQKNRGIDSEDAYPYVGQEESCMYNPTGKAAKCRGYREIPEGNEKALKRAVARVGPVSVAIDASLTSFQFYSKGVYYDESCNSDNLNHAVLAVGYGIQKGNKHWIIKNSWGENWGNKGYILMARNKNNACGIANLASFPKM

| SMILES | IC50 (Cathepsin B) | IC50 (Cathepsin S) | IC50 (Procathepsin L) | IC50 (Cathepsin K) |
| --- | --- | --- | --- | --- |
| O=C(N[C@@H](Cc1ccccc1)C(=O)N[C@@H]1C(=O)N2CCO[C@H]12)OCc1ccccc1 | 1760 nM | 430 nM | 85 nM | 1630 nM |
| O=C(N[C@H](C(=O)N[C@@H]1C(=O)N2CCO[C@H]12)c1ccccc1)OCc1ccccc1 | > 50000 nM |  | 1830 nM |  |
| C[C@H](NC(=O)OCc1ccccc1)C(=O)N[C@@H]1C(=O)N2CCO[C@H]12 | > 50000 nM | > 2500 nM | 38000 nM | > 2500 nM |

More lines, now with the values ahead:

| IC50 (Cathepsin B) | IC50 (Cathepsin S) | IC50 (Procathepsin L) | IC50 (Cathepsin K) | SMILES |
| --- | --- | --- | --- | --- |
| 30000 nM | 260 nM | 600 nM | 100 nM | CC(C)[C@H](NC(=O)OCc1ccccc1)C(=O)N[C@@H]1C(=O)N2CCO[C@H]12 |
| 12200 nM | 77 nM | 4 nM | 5 nM | O=C(N[C@@H](Cc1ccccc1)C(=O)N[C@@H]1C(=O)N2CCO[C@@H]12)OCc1ccccc1 |
